According to patent publication US20240116985A1, “STAPLED PEPTIDES AND METHODS THEREOF” (priority 2020, published 2024):
In brackets after ≈: the same amount, converted by molar mass. Read-outs that look alike come from different tables or passages of the source.

Legend:
[1] = Solubility in PBS; format: physicochemical
Method in brief: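 The PBS solution was ultracentrifuged and the supernatant analyzed by HPLC. Its peak area was divided by that of a 50 μM peptide DMSO reference injection and multiplied by 50 uM to give solubility.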

[2] = CHI Log D procedure; format: physicochemical; conditions: for chromatographic logD: pH 7.4, CHI Log D; for CHI Log D: pH 7.4
[3] = target: T1, full-length beta-Catenin (Uniprot ID P35222) (Homo sapiens, UniProt P35222); assay: Fluorescence polarization IC50 (beta-catenin / 5FAM-TCF4 10-53 competition); format: binding
T1 construct: 10 nM full-length beta-Catenin (Uniprot ID P35222)
T1 sequence (P35222 1-781): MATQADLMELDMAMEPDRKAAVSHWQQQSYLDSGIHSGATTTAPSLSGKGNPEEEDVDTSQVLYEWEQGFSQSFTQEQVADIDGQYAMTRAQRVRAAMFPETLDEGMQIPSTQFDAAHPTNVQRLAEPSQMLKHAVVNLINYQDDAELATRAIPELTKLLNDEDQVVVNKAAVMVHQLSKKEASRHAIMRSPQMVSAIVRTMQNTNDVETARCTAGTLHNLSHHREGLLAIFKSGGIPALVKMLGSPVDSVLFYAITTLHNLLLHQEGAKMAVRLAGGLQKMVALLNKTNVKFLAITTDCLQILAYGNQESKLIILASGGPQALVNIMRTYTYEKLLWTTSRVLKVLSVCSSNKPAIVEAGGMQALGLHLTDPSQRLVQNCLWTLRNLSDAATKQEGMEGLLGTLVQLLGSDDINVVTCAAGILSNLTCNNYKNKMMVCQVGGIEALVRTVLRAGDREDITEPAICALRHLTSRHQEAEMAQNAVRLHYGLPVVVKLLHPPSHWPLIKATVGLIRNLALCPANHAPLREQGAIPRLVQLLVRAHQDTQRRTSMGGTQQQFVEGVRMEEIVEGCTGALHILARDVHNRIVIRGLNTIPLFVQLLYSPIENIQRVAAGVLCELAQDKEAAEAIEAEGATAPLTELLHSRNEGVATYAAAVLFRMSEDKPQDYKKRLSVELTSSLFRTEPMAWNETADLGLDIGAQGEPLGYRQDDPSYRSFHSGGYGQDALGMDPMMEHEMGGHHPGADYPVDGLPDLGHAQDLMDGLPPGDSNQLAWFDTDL

[4] = fluorescence polarization, read-out: beta-Catenin FP IC50

| SMILES | solubility at 15 min ([1]; Solubility (uM)) [µM] | chromatographic logD [2] | IC50 [3, 4] [nM] | Solubility ([1]; Solubility (uM)) [µM] | Solubility [1] [µM] | CHI Log D [2] | IC50 ([3]; read-out: FP EC50) [nM] |
| --- | --- | --- | --- | --- | --- | --- | --- |
| CC(=O)N1CCC[C@]12CC=CCCCC1(CCCC=CCCCCCC[C@@](C)(C(=O)NC(Cc3cncn3C)C(=O)N[C@@H](Cc3csc4ccccc34)C(=O)N[C@@H](CCC(N)=O)C(N)=O)NC(=O)[C@H](CC(N)=O)NC(=O)[C@H](Cc3ccccc3)NC(=O)[C@H](C)NC(=O)[C@H](C)NC(=O)[C@H](CCC(=O)O)NC(=O)[C@H](CC(=O)O)NC1=O)NC(=O)[C@H](C)NC(=O)[C@H](CC(=O)O)NC2=O (stereo partly drawn) [I-438, Ac-PL3-Asp-Ala-B5-Asp-Glu-Ala-Ala-Phe-Asn-S8-3meH-BztA-Gln-NH2] | 46 (≈ 84.2 µg/mL) | 1.39 | 5000 | – | – | – | – |
| CC(=O)N1CCC[C@]12CC=CCCCC1(CCCC=CCCCCCC[C@@](C)(C(=O)N[C@@H](Cc3ccccc3[N+](=O)[O-])C(=O)N[C@@H](Cc3csc4ccccc34)C(=O)N[C@@H](CCC(N)=O)C(N)=O)NC(=O)[C@H](CC(N)=O)NC(=O)[C@H](Cc3ccccc3)NC(=O)[C@H](C)NC(=O)[C@H](C)NC(=O)[C@H](CCC(=O)O)NC(=O)[C@H](CC(=O)O)NC1=O)NC(=O)[C@H](C)NC(=O)[C@H](CC(=O)O)NC2=O (stereo partly drawn) [I-441, Ac-PL3-Asp-Ala-B5-Asp-Glu-Ala-Ala-Phe-Asn-S8-2NO2F-BztA-Gln-NH2] | – | 2 | 133 | 38 (≈ 71.1 µg/mL) | – | – | – |
| CC(=O)N1CCC[C@]12CC=CCCCC1(CCCC=CCCCCCC[C@@](C)(C(=O)N[C@@H](CCc3ccccc3)C(=O)N[C@@H](Cc3csc4ccccc34)C(=O)N[C@@H](CCC(N)=O)C(N)=O)NC(=O)[C@H](CC(N)=O)NC(=O)[C@H](Cc3ccccc3)NC(=O)[C@H](C)NC(=O)[C@H](C)NC(=O)[C@H](CCC(=O)O)NC(=O)[C@H](CC(=O)O)NC1=O)NC(=O)[C@H](C)NC(=O)[C@H](CC(=O)O)NC2=O (stereo partly drawn) [I-442, Ac-PL3-Asp-Ala-B5-Asp-Glu-Ala-Ala-Phe-Asn-S8-hPhe-BztA-Gln-NH2] | – | – | 4480 | – | 40 (≈ 73.6 µg/mL) | 2.098 | 4480 |
| CC(=O)N1CCC[C@]12CC=CCCCC1(CCCC=CCCCCCC[C@@](C)(C(=O)N[C@@H](CCc3ccccc3)C(=O)N[C@@H](Cc3csc4ccccc34)C(=O)N[C@@H](CCC(N)=O)C(N)=O)NC(=O)[C@H](CC(N)=O)NC(=O)[C@H](Cc3ccccc3)NC(=O)[C@H](C)NC(=O)[C@H](C)NC(=O)[C@H](CCC(=O)O)NC(=O)[C@H](CC(=O)O)NC1=O)NC(=O)[C@H](C)NC(=O)[C@H](CC(=O)O)NC2=O (stereo partly drawn) [I-443, Ac-PL3-Asp-Ala-B5-Asp-Glu-Ala-Ala-Phe-Asn-S8-hPhe-BztA-Gln-NH2] | – | – | 2130 | – | 50 (≈ 92.1 µg/mL) | 2.128 | 2130 |
| CC(=O)N1CCC[C@]12CC=CCCCC1(CCCC=CCCCCCC[C@@](C)(C(=O)N[C@@H](Cc3ccccc3)C(=O)N[C@@H](Cc3csc4ccccc34)C(=O)N[C@@H](CCC(N)=O)C(N)=O)NC(=O)[C@H](CC(N)=O)NC(=O)[C@H](Cc3ccccc3)NC(=O)[C@H](C)NC(=O)[C@H](C)NC(=O)[C@H](Cc3nn[nH]n3)NC(=O)[C@H](CC(=O)O)NC1=O)NC(=O)[C@H](C)NC(=O)[C@H](CC(=O)O)NC2=O (stereo partly drawn) [I-444, Ac-PL3-Asp-Ala-B5-Asp-Tetz-Ala-Ala-Phe-Asn-S8-Phe-BztA-Gln-NH2] | – | 1.99 | 80 | – | 50 (≈ 91.9 µg/mL) | – | – |
| CC(=O)N1CCC[C@]12CC=CCCCC1(CCCC=CCCCCCC[C@@](C)(C(=O)N[C@@H](Cc3ccccc3)C(=O)N[C@@H](Cc3csc4ccccc34)C(=O)N[C@@H](CCC(N)=O)C(N)=O)NC(=O)[C@H](CC(N)=O)NC(=O)[C@H](Cc3ccccc3)NC(=O)[C@H](C)NC(=O)[C@H](C)NC(=O)[C@H](CC(=O)O)NC(=O)[C@H](Cc3nn[nH]n3)NC1=O)NC(=O)[C@H](C)NC(=O)[C@H](CC(=O)O)NC2=O (stereo partly drawn) [I-445, Ac-PL3-Asp-Ala-B5-Tetz-Asp-Ala-Ala-Phe-Asn-S8-Phe-BztA-Gln-NH2] | – | 2.05 | 4960 | 43 (≈ 79 µg/mL) | – | – | – |
| CC(=O)N1CCC[C@]12CC=CCCCC1(CCCC=CCCCCCC[C@@](C)(C(=O)N[C@@H](Cc3ccccc3)C(=O)N[C@@H](Cc3csc4ccccc34)C(=O)N[C@@H](CCC(N)=O)C(N)=O)NC(=O)[C@H](CC(N)=O)NC(=O)[C@H](Cc3cccs3)NC(=O)[C@H](C)NC(=O)[C@H](C)NC(=O)[C@H](CCC(=O)O)NC(=O)[C@H](CC(=O)O)NC1=O)NC(=O)[C@H](C)NC(=O)[C@H](CC(=O)O)NC2=O (stereo partly drawn) [I-446, Ac-PL3-Asp-Ala-B5-Asp-Glu-Ala-Ala-2Thi-Asn-S8-Phe-BztA-Gln-NH2] | – | – | 130 | – | 44 (≈ 80.7 µg/mL) | 1.97 | 130 |
| CC(=O)N1CCC[C@]12CC=CCCCC1(CCCC=CCCCCCC[C@@](C)(C(=O)N[C@@H](Cc3ccccc3)C(=O)N[C@@H](Cc3csc4ccccc34)C(=O)N[C@@H](CCC(N)=O)C(N)=O)NC(=O)[C@H](CC(N)=O)NC(=O)[C@H](Cc3cccs3)NC(=O)[C@H](C)NC(=O)[C@H](C)NC(=O)[C@H](CCC(=O)O)NC(=O)[C@H](CC(=O)O)NC1=O)NC(=O)[C@H](C)NC(=O)[C@H](CC(=O)O)NC2=O (stereo partly drawn) [I-447, Ac-PL3-Asp-Ala-B5-Asp-Glu-Ala-Ala-2Thi-Asn-S8-Phe-BztA-Gln-NH2] | – | – | 74 | – | 50 (≈ 91.7 µg/mL) | 1.996 | 74 |
| CC(=O)N1CCC[C@]12CC=CCCCC1(CCCC=CCCCCCC[C@@](C)(C(=O)N[C@@H](Cc3ccccc3)C(=O)N[C@@H](Cc3csc4ccccc34)C(=O)N[C@@H](CCC(N)=O)C(N)=O)NC(=O)[C@H](CC(N)=O)NC(=O)[C@H](Cc3ccsc3)NC(=O)[C@H](C)NC(=O)[C@H](C)NC(=O)[C@H](CCC(=O)O)NC(=O)[C@H](CC(=O)O)NC1=O)NC(=O)[C@H](C)NC(=O)[C@H](CC(=O)O)NC2=O (stereo partly drawn) [I-448, Ac-PL3-Asp-Ala-B5-Asp-Glu-Ala-Ala-3Thi-Asn-S8-Phe-BztA-Gln-NH2] | – | – | 92 | – | 50 (≈ 91.7 µg/mL) | 1.976 | 92 |
| CC(=O)N1CCC[C@]12CC=CCCCC1(CCCC=CCCCCCC[C@@](C)(C(=O)N[C@@H](Cc3ccccc3)C(=O)N[C@@H](Cc3csc4ccccc34)C(=O)N[C@@H](CCC(N)=O)C(N)=O)NC(=O)[C@H](CC(N)=O)NC(=O)[C@H](Cc3ccsc3)NC(=O)[C@H](C)NC(=O)[C@H](C)NC(=O)[C@H](CCC(=O)O)NC(=O)[C@H](CC(=O)O)NC1=O)NC(=O)[C@H](C)NC(=O)[C@H](CC(=O)O)NC2=O (stereo partly drawn) [I-449, Ac-PL3-Asp-Ala-B5-Asp-Glu-Ala-Ala-3Thi-Asn-S8-Phe-BztA-Gln-NH2] | – | – | 53 | – | 30 (≈ 55 µg/mL) | 1.998 | 53 |
| CC(=O)N1CCC[C@]12CC=CCCCC1(CCCC=CCCCCCC[C@@](C)(C(=O)N[C@@H](Cc3cccc(F)c3)C(=O)N[C@@H](Cc3c[nH]c4ccccc34)C(=O)N[C@@H](CCC(N)=O)C(N)=O)NC(=O)[C@H](CCC(N)=O)NC(=O)[C@H](Cc3cccs3)NC(=O)[C@H](C)NC(=O)[C@H](C)NC(=O)[C@H](CCC(=O)O)NC(=O)[C@H](CC(=O)O)NC1=O)NC(=O)[C@H](C)NC(=O)[C@H](CC(=O)O)NC2=O (stereo partly drawn) [I-450, Ac-PL3-Asp-Ala-B5-Asp-Glu-Ala-Ala-2Thi-Gln-S8-3FF-Trp-Gln-NH2] | – | 1.88 | 3720 | – | 50 (≈ 92.4 µg/mL) | – | – |
| CC(=O)N1CCC[C@]12CC=CCCCC1(CCCC=CCCCCCC[C@@](C)(C(=O)N[C@@H](Cc3cccc(F)c3)C(=O)N[C@@H](Cc3c[nH]c4ccccc34)C(=O)N[C@@H](CCC(N)=O)C(N)=O)NC(=O)[C@H](CCC(N)=O)NC(=O)[C@H](Cc3ccsc3)NC(=O)[C@H](C)NC(=O)[C@H](C)NC(=O)[C@H](CCC(=O)O)NC(=O)[C@H](CC(=O)O)NC1=O)NC(=O)[C@H](C)NC(=O)[C@H](CC(=O)O)NC2=O (stereo partly drawn) [I-452, Ac-PL3-Asp-Ala-B5-Asp-Glu-Ala-Ala-3Thi-Gln-S8-3FF-Trp-Gln-NH2] | – | – | 1660 | – | 50 (≈ 92.4 µg/mL) | 1.917 | 1660 |
